The supplement of paper PMC10307832

Key:
Assay in all cases: relative viability (nuclei count vs DMSO), 5 days (fraction); higher = more cells survive
[1] = compound: C[C@]1(O)C[C@@H](c2nc(-c3ccc4ccc(-c5ccccc5)nc4c3)c3c(N)nccn32)C1 [Linsitinib] + N=C(N)NC(=N)NCCc1ccccc1 [Phenformin] (partner 250 µM)
Procedure, shortened: (§1)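 Relative viability divides the nuclei count in treated wells by that in vehicle wells. Lung cancer cell lines were seeded in 1536-well plates, dosed by pin tool the next day, and fixed and stained after 5 days in one step with final 0.05% Triton X-100, 1% formaldehyde and 1 ug/ml Hoechst. Dosing was a single drug or a fixed anchor-drug dose plus five library-drug doses (not always all listed) in √10 steps, and values are medians of duplicate plates imaged at 4×.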

[2] = compound: C[C@]1(O)C[C@@H](c2nc(-c3ccc4ccc(-c5ccccc5)nc4c3)c3c(N)nccn32)C1 [Linsitinib] + O=C(CCCCCCC(=O)Nc1ccccc1)NO [Vorinostat] (partner 1 µM)
Procedure, shortened: as §1

[3] = compound: Cc1ccc(C(=O)N(CCCN)[C@@H](c2nc3cc(Cl)ccc3c(=O)n2Cc2ccccc2)C(C)C)cc1 [Ispinesib] + CCNC(=O)c1noc(-c2cc(C(C)C)c(O)cc2O)c1-c1ccc(CN2CCOCC2)cc1 [Luminespib] (partner 0.01 µM)
Procedure, shortened: as §1

[4] = compound: Cc1ccc(C(=O)N(CCCN)[C@@H](c2nc3cc(Cl)ccc3c(=O)n2Cc2ccccc2)C(C)C)cc1 [Ispinesib] + N=C(N)NC(=N)NCCc1ccccc1 [Phenformin] (partner 250 µM)
Procedure, shortened: as §1

Cell Line	relative viability ([1]; first compound 0.01 µM)	relative viability ([1]; first compound 0.03162 µM)	relative viability ([1]; first compound 0.1 µM)	relative viability ([1]; first compound 0.3162 µM)	relative viability ([1]; first compound 1 µM)	relative viability ([2]; first compound 0.01 µM)	relative viability ([2]; first compound 0.03162 µM)	relative viability ([2]; first compound 0.1 µM)	relative viability ([2]; first compound 0.3162 µM)	relative viability ([2]; first compound 1 µM)	relative viability ([3]; first compound 0.001 µM)	relative viability ([3]; first compound 0.003162 µM)	relative viability ([3]; first compound 0.01 µM)	relative viability ([3]; first compound 0.03162 µM)	relative viability ([3]; first compound 0.1 µM)	relative viability ([4]; first compound 0.001 µM)	relative viability ([4]; first compound 0.003162 µM)	relative viability ([4]; first compound 0.01 µM)	relative viability ([4]; first compound 0.03162 µM)	relative viability ([4]; first compound 0.1 µM)
NCI-H1666	0.539	0.394	0.534	0.314	0.511	1	1.06	1.02	0.617	0.922	1	0.973	0.946	0.887	0.501	0.524	0.6	0.541	0.475	0.343
COR-L 105	0.554	0.451	0.49	0.478	0.406	0.749	0.872	0.712	0.389	0.609	0.737	0.666	0.808	0.349	0.439	0.602	0.455	0.366	0.216	0.258
LU99A	0.919	0.848	0.781	0.475	0.555	0.492	0.466	0.524	–	0.291	0.242	0.333	0.247	0.199	0.218	0.892	0.837	0.965	0.373	0.235
NCI-H596	0.721	0.638	0.678	0.774	0.833	0.583	0.584	0.597	0.49	0.593	1.01	0.954	1.07	1.06	0.609	0.676	0.791	0.765	0.791	0.315
201T	0.405	0.475	0.434	0.449	0.338	0.941	1.06	0.972	0.487	0.832	1.07	1.05	1.15	0.988	0.937	0.462	0.533	0.559	0.427	0.24
HCC-15	0.512	0.46	0.433	–	0.292	0.822	0.752	0.763	0.633	0.705	0.286	0.322	0.459	0.229	0.227	0.567	0.48	0.487	0.19	0.184
